Results from patent US20210179680A1, “POLYPEPTIDE, DERIVATIVES THEREOF, AND APPLICATION THEREOF IN PREPARATION OF DRUGS HAVING RESISTANCE TO PULMONARY FIBROSIS” (priority 2016, published 2021).
Bridge positions count the residues as written; N and C are the ends. Square brackets hold non-standard residues; d marks the D form. Peptide text beside a SMILES is read from it. S5 = C=CCCC[C@](C)(N)C(=O)O

Key:
Assay type in all cases: in vivo, C57BL/6 mice
[1] = tested on: mice with bleomycin-induced pulmonary fibrosis; experiment: Pulmonary function (Flexivent) in mice with pulmonary fibrosis; conditions: Table 3 groups, 2 mg/kg i.p.; for Dynamic compliance (mL/cmH2O) / Dynamic elasticity (cmH2O./mL) / Dynamic resistance (cmH2O · s/Ml) / Inspiratory capacity: 28th day after model construction; for pulmonary function of mice with pulmonary fibrosis (in words): FIG. 11
Method: (§1) Male C57BL/6 mice were fasted overnight, then anesthetized with 45 mg/kg sodium pentobarbital by injection intraperitoneally (i.p.), and intratracheally injected with bleomycin at a dose of 3 U/kg. The specific operation steps are as follows: cut the neck skin of the mouse with as little trauma as possible, expose the trachea with the assistance of elbow ophthalmic forceps, puncture the trachea and inject about 50 μL of bleomycin into the trachea with a microsyringe, rotate the mouse quickly and stand it upright for 5 minutes in order to make bleomycin evenly enter the left and right lobe, thereby constructing an animal model. The whole operation was performed at a surgical table at about […]. Mice in the sham operation group were intratracheally injected with an equal amount of physiological saline for injection.
(§2) Pulmonary function is a gold indicator for clinical detection of pulmonary fibrosis in patients. The decline of lung function is generally accompanied by an aggravation of fibrosis, while the improvement of lung function generally represents the recovery of lung tissue structure. Pulmonary fibrosis models were prepared according to the method described in Example 2 and administered in groups according to Table 3. On the 28th day after the construction of the animal model, the mice were anesthetized with sodium pentobarbital (45 mg/kg, i.p.). Lung function was tested by the Flexivent Small-animal respiratory mechanics and the testing methods were TLC and SnapShots (Testing method refers to Lv X, Wang X, Li K, et al. Rupatadine Protects against Pulmonary Fibrosis by Attenuating PAF-Mediated Senescence in Rodents [J]. PloS one, 2013, 8(7): e68631).
as §2, with “lung function also generally represents” for “lung function generally represents”, “to Table 9. 28 days later, the mice” for “to Table 3. On the 28th day after the construction of the animal model, the mice”, “Senescence in Rodents[J]. PloS one,” for “Senescence in Rodents [J]. PloS one,”

[2] = tested on: mice with bleomycin-induced pulmonary fibrosis; experiment: HE staining pathomorphology and inflammatory score of bleomycin-induced pulmonary fibrosis; conditions: Table 3 groups, 2 mg/kg i.p., after 28 days, grade 0-5
Method: as §1
General tissue changes and tissue products can be visualized by HE staining method, namely Hematoxylin and Eosin staining method, which is the most commonly used staining method for morphology. Among them, hematoxylin dyeing solution is an alkaline dyeing solution, which mainly makes the chromatin in the nucleus and the ribosome in the cytoplasm purple blue; eosin is an acid dye, which mainly makes the components in the cytoplasm and extracellular matrix red. Pulmonary fibrosis models were made according to the method described in Example 2 and administered in groups according to Table 3. After 28 days, the right lower lobe of lung tissue of the experimental animals was taken, and fixed with 4% (v/v) paraformaldehyde and embedded in paraffin. Section was performed on the largest cross-section of the paraffin block in which the lung tissue embedded, and basic pathological changes was observed through HE staining. […] The administration of polypeptides S1-S11 can reduce lung inflammation caused by bleomycin, and effectively ameliorate lung injury and restore normal lung structure.
The inflammatory grading was observed according to the results of HE staining, and the criteria were as follows (grade 0-5): grade “0”: normal tissue; grade “1”: extremely small inflammatory changes; grade “2”: mild to moderate inflammatory changes without apparent destruction of lung tissue structure; grade “3”: moderate inflammatory injury (thickening of alveolar diaphragm); grade “4”: moderate to severe inflammatory injury with formation of tissue mass, or the normal structure of lung tissue was destroyed by localized pneumonia area; grade “5”: severe inflammatory injury, severe destruction of the localized lung tissue structure, resulting in closure of lumen.
Pulmonary fibrosis models were made according to the method described in Example 2 and administered in groups according to Table 9. After 28 days, the right lower lobe of lung tissue of the experimental animals was taken, and fixed by 4% (v/v) paraformaldehyde and embedded in paraffin. Section was performed on the largest cross-section of the paraffin block in which the lung tissue embedded, and basic pathological changes was observed through HE staining.

[3] = tested on: mice with bleomycin-induced pulmonary fibrosis; experiment: Hydroxyproline content in lung of mice with pulmonary fibrosis; conditions: Table 3 groups, 2 mg/kg i.p.; left lung lobes; chloramine-T method
Method: as §1
(§3) Hydroxyproline accounts for 13.4% (w/w) of collagen, and extremely small amount of elastin, while it is absent in other proteins. […] Pulmonary fibrosis models were prepared according to the method described in Example 2 and administered in groups according to Table 3. The content of hydroxyproline in the lobes of left lung of the animals was measured 28 days later, and the condition of pulmonary fibrosis was evaluated.
The specific method is as follows: the mice in the animal model prepared in Example 2 was feed in a SPF animal room and treated with polypeptide according to the dosing schedule of Table 3, and all left lobes of lung of the experimental animal was taken on the 21st day after the animal model was constructed and the wet weight was recorded. Then 10% (w/w) tissue homogenate was prepared by ultrasonic homogenization using physiological saline. About 150 μL of homogenate supernatant was taken, and 500 μL of alkali hydrolysate was added (provided by Hydroxyproline alkaline hydrolysis kit of Nanjing Jiancheng Bioengineering Technology Co., Ltd.). After vortex mixing, the mixture was treated with alkaline hydrolysis for 40 min under conditions of 120° C., 0.1 Kpa. After adjusting the pH value, the volume was held constant, and the supernatant was taken after performing activated carbon treatment. The hydroxyproline was determined according to the chloramine-T method (the method of the present example refers to the instruction provided with kit, which was purchased from Nanjing Jiancheng Bioengineering Technology Co., Ltd.). […] In FIG. 10, “##” represents that P value is less than 0.01 when comparing the content of hydroxyproline in the administration group with that in the sham operation group; and “*” represents that P value is less than 0.05 and“**” represents that P value is less than 0.01 when comparing the content of hydroxyproline in the administration group with that in bleomycin group.
as §3, with “collagen, and accounts for extremely small” for “collagen, and extremely small”, “in the all lobes of” for “in the lobes of”
The specific method is as follows: the mice in the animal model prepared in Example 2 was feed in an SPF animal room and treated with polypeptide according to the dosing schedule of Table 3, and all the left lobes of lung of the experimental animal was taken on the 21st day after the animal model was constructed and the wet weight was recorded. Then 10% (w/w) tissue homogenate was prepared by ultrasonic homogenization using physiological saline. About 150 μL of homogenate supernatant was taken, and 500 μL of alkali hydrolysate was added (provided by Hydroxyproline alkaline hydrolysis kit of Nanjing Jiancheng Bioengineering Technology Co., Ltd.). After vortex mixing, the mixture was treated with alkaline hydrolysis for 40 min under conditions of 120° C., 0.1 Kpa. […]

SMILES: CSCC[C@H](NC(=O)[C@H](CC(C)C)NC(=O)[C@@H](N)Cc1c[nH]cn1)C(=O)N[C@@H](C)C(=O)N[C@@H](CS)C(=O)N[C@@H](Cc1ccccc1)C(=O)N[C@H](C(=O)N[C@@H](CS)C(=O)N[C@@H](C)C(=O)N[C@@H](CCCCN)C(=O)N[C@@H](CCCCN)C(=O)N[C@@H](CC(C)C)C(=O)N[C@@H](CCCCN)C(=O)N[C@@H](CCCCN)C(=O)N[C@@H](CCCNC(=N)N)C(=O)O)[C@@H](C)O [MR2] (H-HLMACFTCAKKLKKR-OH; N-terminus and C-terminus assumed)
- Dynamic compliance (mL/cmH2O) [1]: 0.22 mL/cmH2O
- Dynamic elasticity (cmH2O./mL) [1]: 68.83 cmH2O./mL
- Dynamic resistance (cmH2O · s/Ml) [1]: 1.775 cmH2O · s/Ml
- Inspiratory capacity [1]: 0.456 mL
- pulmonary function of mice with pulmonary fibrosis (in words) [1]: improved
- Inflammatory score [2]: 4
- hydroxyproline content (μg/mg protein) [3]: 0.9087 μg/mg protein

SMILES: CSCC[C@@H]1NC(=O)[C@H](CC(C)C)NC(=O)[C@@](C)(N)CCCC=CCCC[C@@](C)(C(=O)N[C@@H](Cc2ccccc2)C(=O)N[C@H](C(=O)N[C@@H](CS)C(=O)N[C@@H](C)C(=O)N[C@@H](CCCCN)C(=O)N[C@@H](CCCCN)C(=O)N[C@@H](CC(C)C)C(=O)N[C@@H](CCCCN)C(=O)N[C@@H](CCCCN)C(=O)N[C@@H](CCCNC(=N)N)C(=O)O)[C@@H](C)O)NC(=O)[C@H](C)NC1=O [S1, S5-Leu-Met-Ala-S5-Phe-Thr-Cys-Ala-Lys-Lys-Leu-Lys-Lys-Arg] (H-[S5]LMA[S5]FTCAKKLKKR-OH; staple 1-5; N-terminus and C-terminus assumed)
- Dynamic compliance (mL/cmH2O) [1]: 0.2883 mL/cmH2O
- Dynamic elasticity (cmH2O./mL) [1]: 52.17 cmH2O./mL
- Dynamic resistance (cmH2O · s/Ml) [1]: 1.15 cmH2O · s/Ml
- Inspiratory capacity [1]: 0.71 mL
- pulmonary function of mice with pulmonary fibrosis (in words) [1]: improved
- Inflammatory score [2]: 2.667
- hydroxyproline content (μg/mg protein) [3]: 0.7087 μg/mg protein

SMILES: CSCC[C@@H]1NC(=O)[C@@](C)(NC(=O)[C@@H](N)Cc2c[nH]cn2)CCCC=CCCC[C@@](C)(C(=O)N[C@H](C(=O)N[C@@H](CS)C(=O)N[C@@H](C)C(=O)N[C@@H](CCCCN)C(=O)N[C@@H](CCCCN)C(=O)N[C@@H](CC(C)C)C(=O)N[C@@H](CCCCN)C(=O)N[C@@H](CCCCN)C(=O)N[C@@H](CCCNC(=N)N)C(=O)O)[C@@H](C)O)NC(=O)[C@H](CS)NC(=O)[C@H](C)NC1=O [S2, His-S5-Met-Ala-Cys-S5-Thr-Cys-Ala-Lys-Lys-Leu-Lys-Lys-Arg] (H-H[S5]MAC[S5]TCAKKLKKR-OH; staple 2-6; N-terminus and C-terminus assumed)
- Dynamic compliance (mL/cmH2O) [1]: 0.2683 mL/cmH2O
- Dynamic elasticity (cmH2O./mL) [1]: 55.33 cmH2O./mL
- Dynamic resistance (cmH2O · s/Ml) [1]: 1.25 cmH2O · s/Ml
- Inspiratory capacity [1]: 0.688 mL
- pulmonary function of mice with pulmonary fibrosis (in words) [1]: improved
- Inflammatory score [2]: 2.667
- hydroxyproline content (μg/mg protein) [3]: 0.7063 μg/mg protein

SMILES: CC(C)C[C@H](NC(=O)[C@H](CCCCN)NC(=O)[C@H](CCCCN)NC(=O)[C@H](C)NC(=O)[C@H](CS)NC(=O)[C@]1(C)CCCC=CCCC[C@](C)(NC(=O)[C@H](CC(C)C)NC(=O)[C@@H](N)Cc2c[nH]cn2)C(=O)N[C@@H](C)C(=O)N[C@@H](CS)C(=O)N[C@@H](Cc2ccccc2)C(=O)N1)C(=O)N[C@@H](CCCCN)C(=O)N[C@@H](CCCCN)C(=O)N[C@@H](CCCNC(=N)N)C(=O)O [S3, His-Leu-S5-Ala-Cys-Phe-S5-Cys-Ala-Lys-Lys-Leu-Lys-Lys-Arg] (H-HL[S5]ACF[S5]CAKKLKKR-OH; staple 3-7; N-terminus and C-terminus assumed)
- Dynamic compliance (mL/cmH2O) [1]: 0.255 mL/cmH2O
- Dynamic elasticity (cmH2O./mL) [1]: 47 cmH2O./mL
- Dynamic resistance (cmH2O · s/Ml) [1]: 1.143 cmH2O · s/Ml
- Inspiratory capacity [1]: 0.646 mL
- pulmonary function of mice with pulmonary fibrosis (in words) [1]: improved
- Inflammatory score [2]: 2.5
- hydroxyproline content (μg/mg protein) [3]: 0.8287 μg/mg protein

SMILES: CSCC[C@H](NC(=O)[C@H](CC(C)C)NC(=O)[C@@H](N)Cc1c[nH]cn1)C(=O)N[C@@]1(C)CCCC=CCCC[C@@](C)(C(=O)N[C@@H](C)C(=O)N[C@@H](CCCCN)C(=O)N[C@@H](CCCCN)C(=O)N[C@@H](CC(C)C)C(=O)N[C@@H](CCCCN)C(=O)N[C@@H](CCCCN)C(=O)N[C@@H](CCCNC(=N)N)C(=O)O)NC(=O)[C@H]([C@@H](C)O)NC(=O)[C@H](Cc2ccccc2)NC(=O)[C@H](CS)NC1=O [S4, His-Leu-Met-S5-Cys-Phe-Thr-S5-Ala-Lys-Lys-Leu-Lys-Lys-Arg] (H-HLM[S5]CFT[S5]AKKLKKR-OH; staple 4-8; N-terminus and C-terminus assumed)
- Dynamic compliance (mL/cmH2O) [1]: 0.2617 mL/cmH2O
- Dynamic elasticity (cmH2O./mL) [1]: 59.33 cmH2O./mL
- Dynamic resistance (cmH2O · s/Ml) [1]: 1.267 cmH2O · s/Ml
- Inspiratory capacity [1]: 0.564 mL
- pulmonary function of mice with pulmonary fibrosis (in words) [1]: improved
- Inflammatory score [2]: 2.833
- hydroxyproline content (μg/mg protein) [3]: 0.65 μg/mg protein
